Experiments:
[1] = molecular target: human plasma kallikrein (Homo sapiens (Human), UniProt P03952); test: In vitro enzyme inhibition of human plasma kallikrein (PFR-AMC cleavage); assay type: biochemical; details: Pro-Phe-Arg-AMC substrate, 37° C., read-out: hPK IC50
Method in brief: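 Human plasma kallikrein and compound, diluted in 50 mM Tris-HCl pH 7.5, 150 mM NaCl, 0.01% Triton X-100, preincubated 5 min at 37 °C before PFR-AMC was added.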

[2] = molecular target: cellular kallikrein activity (Homo sapiens (Human), UniProt P03952); test: In vitro cellular assay (contact assay): kallikrein activity in ellagic acid-activated human plasma, Z-FR-2-AMC substrate; assay type: biochemical; details: human plasma activated with ellagic acid, 37° C.
Chain of cellular kallikrein activity (P03952 391-638): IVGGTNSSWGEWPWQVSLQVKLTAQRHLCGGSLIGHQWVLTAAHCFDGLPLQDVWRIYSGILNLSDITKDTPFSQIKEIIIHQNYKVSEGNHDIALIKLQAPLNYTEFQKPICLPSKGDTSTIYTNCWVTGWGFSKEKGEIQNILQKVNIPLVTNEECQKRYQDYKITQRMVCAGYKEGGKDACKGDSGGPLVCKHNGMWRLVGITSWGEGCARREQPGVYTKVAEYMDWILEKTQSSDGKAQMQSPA
Chain of cellular kallikrein activity (P03952 20-390 partner): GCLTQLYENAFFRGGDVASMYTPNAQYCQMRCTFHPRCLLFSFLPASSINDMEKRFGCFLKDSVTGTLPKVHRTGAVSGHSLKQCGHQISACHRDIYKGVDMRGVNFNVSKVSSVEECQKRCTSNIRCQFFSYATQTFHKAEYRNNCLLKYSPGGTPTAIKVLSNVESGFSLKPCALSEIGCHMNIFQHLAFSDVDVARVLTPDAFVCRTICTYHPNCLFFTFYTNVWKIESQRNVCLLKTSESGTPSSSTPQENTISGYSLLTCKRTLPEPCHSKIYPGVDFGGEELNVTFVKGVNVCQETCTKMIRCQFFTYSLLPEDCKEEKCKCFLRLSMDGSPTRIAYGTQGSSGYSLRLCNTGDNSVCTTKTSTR
Protocol: The ability of the compounds disclosed herein to inhibit cellular kallikrein activity was quantified and the respective EC50 value was determined.
All dilutions were prepared in an assay buffer comprising 50 mM Tris-HCl pH 7.2, 150 mM NaCl, and 0.01% Triton X-100.
The ten solutions of the test compounds, prepared by serial dilution, were further diluted 50-fold in the assay buffer.
Human plasma is thawed on ice and centrifuged for 15 min at 4° C. to remove platelets. A 1 mM stock solution of ellagic acid is diluted to 8 μM and mixed with human plasma, after removing platelets, at a ratio of 1:0.8.
A 22.5 μL volume of the final mixture of human plasma and ellagic acid was added to a 96-well microwell plate and the plate was incubated for 15 min at 37° C.
The CINH inhibitor at various concentrations, prepared by serial dilutions as described above, were added to the inhibitor control wells. […] Each CINH concentration is tested in duplicates.
The test compounds at various concentrations, also prepared by serial dilutions as described above, are added to the test wells. […] Each test compound concentration was tested in duplicates.
In addition to the inhibitor control and test wells, the 96 well assay plate includes positive control wells which contained the mixture of human plasma and ellagic acid without C1NH inhibitor or test compounds, and background wells which contained neither the mixture of human plasma and ellagic acid nor the test compounds. The total volume of liquid in positive control and background wells was brought up to 35 μL, using the assay buffer.
The assay plate containing C1NH inhibitors and test compounds mixed with human plasma and ellagic acid and appropriate controls was incubated at 37° C. for 5 min. […] The reagents were mixed well by shaking the plate gently for 30 sec.
The enzyme reaction was quantified by immediate kinetic reading of the assay plate using excitation/emission wavelengths of 330 nm/440 nm respectively. Fluorescence intensity was recorded for 60 min, using a time interval of 43 sec.
The inhibition activity of the test compounds were evaluated using the EC50 values, calculated according to the dose-response curve of the test compounds, fitted using the “log(inhibitor)−response (variable slope)” equation in GraphPadPrism software (GraphPad Software, Inc.).
The percentage inhibition was calculated using the following equation:
[formula] where, Mean (BG) is the average value of the fluorescence intensity of the background wells and Mean (PC) is the average value of the fluorescence intensity of the positive control wells.
Table 4 provides the EC50 values of various compounds disclosed herein.

Chain of human plasma kallikrein (P03952 391-638): as the sequence (P03952 391-638) above
Chain of human plasma kallikrein (P03952 20-390 partner): as the sequence (P03952 20-390 partner) above

SMILES | IC50 [1] | EC50 [2]
Cc1cc(N)nc(C)c1CNC(=O)c1cc(Cc2ccc3ncc(Cl)cc3c2)nc(C(N)=O)c1 [Example 208, N^4-((6-amino-2,4-dimethylpyridin-3-yl)methyl)-6-((3-chloroquinolin-6-yl)methyl)pyridine-2,4-dicarboxamide] | < 0.1 µM | < 0.1 µM
Cc1cc(N)nc(C)c1CNC(=O)c1cc(CC#N)nc(Cc2ccc3ncc(Cl)cc3c2)c1 [Example 213, N-((6-amino-2,4-dimethylpyridin-3-yl)methyl)-2-((3-chloroquinolin-6-yl)methyl)-6-(cyanomethyl)isonicotinamide] | < 0.1 µM | < 0.1 µM
Cc1cc(N)nc(C)c1CNC(=O)c1ccnc(Cc2cc3cc(Cl)cnc3cn2)c1 [Example 148, N-((6-amino-2,4-dimethylpyridin-3-yl)methyl)-2-((3-chloro-1,7-naphthyridin-6-yl)methyl)isonicotinamide] | < 0.1 µM | < 0.1 µM
Cc1cc(N)nc(C)c1CNC(=O)c1ccnc(Cc2cc(N)c3ncc(Cl)cc3c2)c1 [Example 217, N-((6-amino-2,4-dimethylpyridin-3-yl)methyl)-2-((8-amino-3-chloroquinolin-6-yl)methyl)isonicotinamide] | < 0.1 µM | < 0.1 µM
Cc1cc(N)nc(C)c1CNC(=O)c1cc(CN)nc(Cc2ccc3ncc(Cl)cc3c2)c1 [Example 211, N-((6-amino-2,4-dimethylpyridin-3-yl)methyl)-2-(aminomethyl)-6-((3-chloroquinolin-6-yl)methyl)isonicotinamide] | < 0.1 µM | < 0.1 µM
Cc1cc2c(N)nccc2cc1CNC(=O)c1ccnc(Cc2ccc3ncc(Cl)cc3c2)c1 [Example 181, N-((1-amino-7-methylisoquinolin-6-yl)methyl)-2-((3-chloroquinolin-6-yl)methyl)isonicotinamide] | < 0.1 µM | < 0.1 µM
Cc1ccn2cnc(CNC(=O)c3ccnc(Cc4ccc5ncc(Cl)cc5c4)c3)c2c1 [Example 156, 2-((3-chloroquinolin-6-yl)methyl)-N-((7-methylimidazo[1,5-a]pyridin-1-yl)methyl)isonicotinamide] | < 0.1 µM | 0.1 to 1 µM
Cc1cc(N)nc(C)c1CNC(=O)c1ccnc(Cc2cc3cc(C(F)(F)F)cnc3[nH]2)c1 [Example 215, N-((6-amino-2,4-dimethylpyridin-3-yl)methyl)-2-((5-(trifluoromethyl)-1H-pyrrolo[2,3-b]pyridin-2-yl)methyl)isonicotinamide] | < 0.1 µM | 0.1 to 1 µM
Cc1nc(N)ccc1CNC(=O)c1ccnc(Cc2cc3cc(Cl)cnc3cn2)c1 [Example 149, N-((6-amino-2-methylpyridin-3-yl)methyl)-2-((3-chloro-1,7-naphthyridin-6-yl)methyl)isonicotinamide] | < 0.1 µM | < 0.1 µM
Nc1nc(C(F)(F)F)n2cc(CNC(=O)c3ccnc(Cc4ccc5ncc(Cl)cc5c4)c3)ccc12 [Example 186, N-((1-amino-3-(trifluoromethyl)imidazo[1,5-a]pyridin-6-yl)methyl)-2-((3-chloroquinolin-6-yl)methyl)isonicotinamide] | < 0.1 µM | < 0.1 µM
Cc1cc(N)nc(C)c1CNC(=O)c1ccnc(Cc2cc3cc(Cl)cn3cn2)c1 [Example 153, N-((6-amino-2,4-dimethylpyridin-3-yl)methyl)-2-((6-chloropyrrolo[1,2-c]pyrimidin-3-yl)methyl)isonicotinamide] | < 0.1 µM | < 0.1 µM
Cc1cc(N)nc(C)c1CNC(=O)c1cc(CC(N)=O)nc(Cc2ccc3ncc(Cl)cc3c2)c1 [Example 214, N-((6-amino-2,4-dimethylpyridin-3-yl)methyl)-2-(2-amino-2-oxoethyl)-6-((3-chloroquinolin-6-yl)methyl)isonicotinamide] | < 0.1 µM | < 0.1 µM
Cc1cc(N)nc(C)c1CNC(=O)c1cc(CO)nc(Cc2ccc3ncc(Cl)cc3c2)c1 [Example 212, N-((6-amino-2,4-dimethylpyridin-3-yl)methyl)-2-((3-chloroquinolin-6-yl)methyl)-6-(hydroxymethyl)isonicotinamide] | < 0.1 µM | < 0.1 µM

Results, then the compound that gave them:

IC50 [1] | EC50 [2] | SMILES
< 0.1 µM | 0.1 to 1 µM | Cc1cc(N)nc(C)c1CNC(=O)c1ccnc(C(N)c2ccc3ncc(Cl)cc3c2)c1 (stereo not shown) [Example 276, 2-[Amino-(3-chloro-quinolin-6-yl)-methyl]-N-(6-amino-2,4-dimethyl-pyridin-3-ylmethyl)-isonicotinamide]
< 0.1 µM | 0.1 to 1 µM | CC(C)(O)c1cc(Cc2cc(C(=O)NCc3ccc4[nH]cc(Cl)c4c3F)ccn2)cc2cc(Cl)cnc12 [Example 222, N-((3-chloro-4-fluoro-1H-indol-5-yl)methyl)-2-((3-chloro-8-(2-hydroxypropan-2-yl)quinolin-6-yl)methyl)isonicotinamide]
< 0.1 µM | < 0.1 µM | Cc1nc(N)ccc1CNC(=O)c1ccnc(Cc2cc(C(C)(C)O)c3ncc(Cl)cc3c2)c1 [Example 220, N-((6-amino-2-methylpyridin-3-yl)methyl)-2-((3-chloro-8-(2-hydroxypropan-2-yl)quinolin-6-yl)methyl)isonicotinamide]
< 0.1 µM | < 0.1 µM | Cc1cc(N)nc(C)c1CNC(=O)c1ccnc(Cc2cnc3cc(F)c(Cl)cc3c2)c1 [Example 226, N-((6-amino-2,4-dimethylpyridin-3-yl)methyl)-2-((6-chloro-7-fluoroquinolin-3-yl)methyl)isonicotinamide]
< 0.1 µM | 0.1 to 1 µM | O=C(NCc1cnc2[nH]cc(Cl)c2c1)c1ccnc(Cc2ccc3ncc(C4CC4)cc3c2)c1 [Example 246, N-((3-chloro-1H-pyrrolo[2,3-b]pyridin-5-yl)methyl)-2-((3-cyclopropylquinolin-6-yl)methyl)isonicotinamide]
< 0.1 µM | 0.1 to 1 µM | O=C(NCc1cnc2[nH]cc(Cl)c2c1)c1ccnc(Cc2ccc3ncc(C(F)(F)F)cc3c2)c1 [Example 231, N-((3-chloro-1H-pyrrolo[2,3-b]pyridin-5-yl)methyl)-2-((3-(trifluoromethyl)quinolin-6-yl)methyl)isonicotinamide]
< 0.1 µM | < 0.1 µM | Cc1cc(N)nc(C)c1CNC(=O)c1ccnc(Cc2ccc3ncc(C4CC4)cc3c2)c1 [Example 243, N-((6-amino-2,4-dimethylpyridin-3-yl)methyl)-2-((3-cyclopropylquinolin-6-yl)methyl)isonicotinamide]
< 0.1 µM | < 0.1 µM | CCc1cnc2ccc(Cc3cc(C(=O)NCc4ccc5c(N)nccc5c4)ccn3)cc2c1 [Example 283, N-((1-aminoisoquinolin-6-yl)methyl)-2-((3-ethylquinolin-6-yl)methyl)isonicotinamide]
< 0.1 µM | 0.1 to 1 µM | CC(C)(O)c1cc(Cc2cc(C(=O)NCc3n[nH]c4ccc(Cl)cc34)ccn2)cc2cc(Cl)cnc12 [Example 225, N-((5-chloro-1H-indazol-3-yl)methyl)-2-((3-chloro-8-(2-hydroxypropan-2-yl)quinolin-6-yl)methyl)isonicotinamide]
< 0.1 µM | < 0.1 µM | Cc1cc(N)nc(C)c1CNC(=O)c1ccnc(Cc2ccc3ncc(C(C)C)cc3c2)c1 [Example 254, N-((6-amino-2,4-dimethylpyridin-3-yl)methyl)-2-((3-isopropylquinolin-6-yl)methyl)isonicotinamide]
< 0.1 µM | < 0.1 µM | Cc1cc(N)nc(C)c1CNC(=O)c1ccnc(Cc2ccc3nc(C)c(Cl)cc3c2)c1 [Example 238, N-((6-amino-2,4-dimethylpyridin-3-yl)methyl)-2-((3-chloro-2-methylquinolin-6-yl)methyl)isonicotinamide]
< 0.1 µM | < 0.1 µM | Cc1cc(N)nc(C)c1CNC(=O)c1ccnc(Cc2ccc3ncc(C(F)(F)F)cc3c2)c1 [Example 228, N-((6-amino-2,4-dimethylpyridin-3-yl)methyl)-2-((3-(trifluoromethyl)quinolin-6-yl)methyl)isonicotinamide]
< 0.1 µM | 0.1 to 1 µM | O=C(NCc1cc2c(Cl)c[nH]c2cc1F)c1ccnc(Cc2ccc3ncc(C4CC4)cc3c2)c1 [Example 245, N-((3-chloro-6-fluoro-1H-indol-5-yl)methyl)-2-((3-cyclopropylquinolin-6-yl)methyl)isonicotinamide]

Source: patent US10023557B2 (LifeSci Pharmaceuticals, Inc., priority 2015, dated 2018)
